Results reported in patent publication US20120010179A1, “Methods of using a thiazole derivative” (priority 2006, published 2012).

Tests used:
[1] = system: patients with COPD; assay: Pulmonary function tests (trough and peak FEV1), tetomilast with Advair Diskus 250/50, parallel group study (Example 2); format: in vivo, human; set-up: Estimated Treatment Effect, change from baseline in trough FEV1 (tetomilast versus placebo) / Estimated Treatment Effect in Baseline Mean trough FEV1, Day 7 predose (tetomilast versus placebo) / Estimated Treatment Effect, change from baseline in peak FEV1 (tetomilast versus placebo): unit not given here
Method: Pulmonary function tests were conducted throughout the study to monitor the subjects' respiratory status. Flow volume curves were collected via spirometry. Combivent® (Boehringer Ingleheim Pharmaceuticals, Inc., Ridgefield Conn.), which was used for short-acting rescues as needed throughout the studies described below, was withheld for 6 hours prior to any spirometric testing. Spirometry testing was performed at screening, baseline (Day 0), and at specific times during the treatment period. Each subject could have up to 5 spirometric readings at any study time point. Spirometric readings were performed using equipment from the central provider, Quantum Research, Inc. (Louisville, Colo.). All spirometry readings were recorded and sent to Quantum Research, Inc. for analysis
For the spirometric readings, the best effort was reported as follows. The highest acceptable forced expiratory volume in one second (FEV1) value was selected as the “best” of the given test session. If two or more FEV1 values were tied as highest, the sum of FEV1 and forced vital capacity (FVC) for those efforts was used. If both conditions were equal between the two efforts, the values reported were taken from the effort that occurred first, chronologically, based on date and time of the effort.
This study was a multicenter, randomized, double-blind, placebo-controlled, parallel group, outpatient, phase 1B study of Advair Diskus® 250/50 (fluticasone propionate and salmeterol xinafoate, GlaxoSmithKline, Research Triangle Park, N.C.) administered concomitantly with oral placebo or 50 mg tetomilast (2×25 mg tablets) in patients with COPD. All patients underwent a minimum 28-day washout from short-acting inhaled corticosteroids, long-acting bronchodialators, and/or continuous oxygen therapy (>16 hours per day), and a minimum 7-day washout from beta2-agonists and/or oral theophylline. Patients were randomly assigned to one of the two treatment arms (oral tetomilast 50 mg or placebo) prior to dosing on Day 1, and were distributed 1:1 between the two groups according to a computer-generated randomization code provided by the Otsuka Maryland Research Institute (OMRI) Biostatistics Department. Randomization was performed using a central IVRS system and was centralized across study centers.
Subjects received 7 days of treatment with tetomilast 50 mg or placebo oral dose in treatment period 1. During treatment period 2, Days 8 through 35, concomitant inhaled Advair Diskus® 250/50 was added to the treatment regimen.
Subjects were instructed to take their oral study medication (tetomilast 50 mg or placebo) QD with 8 ounces of water immediately after breakfast for all study treatment days. Subjects assigned to the placebo group received two placebo tablets QD. Subjects assigned to the tetomilast group received 2×25 mg tetomilast tablets QD. On study Days 1-7, 14, 21, 28, and 35, subjects consumed their oral study medication (tetomilast 50 mg or placebo) at the clinic in the presence of the study staff.
The inhaled Advair Diskus® 250/50 was self-administered by subjects on all study days between Days 8 and 35, except for Days 14, 21, 28, and 35, when the medication was administered at the clinic in the presence of the study staff. Advair Diskus® 250/50 was administered twice daily (BID). The morning dose coincided with the timing of the oral dose (tetomilast 50 mg or placebo). The evening dose was taken 12 hours later. Dosing times were recorded in subject diaries.
Combivent® (Boehringer Ingleheim Pharmaceuticals, Inc., Ridgefield, Conn.) was provided by the sponsor for short-acting rescue use during the study. Combivent® was withheld for 6 hours prior to any PFTs. Combivent® was supplied as a metered-dose inhaler. Each actuation meters 21 μg of ipratropium bromide and 120 μg of albuterol sulfate from the valve and delivers […] of ipratropium bromide and 103 μg of albuterol sulfate (equivalent to 90 μg albuterol base) from the mouthpiece. […]

[2] = system: lipopolysaccharide (LPS)-induced cytokine production (TNF-α, IL-1β, IL-6); details: tetomilast pretreatment; human whole blood from normal volunteers in vitro; cited from earlier work
[3] = system: guinea pig models of pulmonary disease; details: cited from earlier work
[4] = Baseline Day 1 predose, Day 7, before Advair Diskus
[5] = Baseline Day 1 predose, Day 14, both with Advair Diskus 250/50 BID
[6] = Baseline Day 1 predose, Day 21, both with Advair Diskus 250/50 BID
[7] = Baseline Day 1 predose, Day 28, both with Advair Diskus 250/50 BID
[8] = Baseline Day 1 predose, Day 35, both with Advair Diskus 250/50 BID

**Q.** With `CCOc1ccc(-c2nc(-c3cccc(C(=O)O)n3)cs2)cc1OCC` [Tetomilast, 2-(3,4-diethoxyphenyl)-4-(2-carboxy-6-pyridyl)thiazole] as the compound, how does the “effect on inhaled Advair Diskus 250/50 response (FEV1), exploratory repeated measures analysis” value ([1]; Advair Diskus 250/50 with tetomilast versus Advair Diskus 250/50 alone, days 8 through 35) read?
**A.** Its value is “possible potentiation of the effect of inhaled fluticasone propionate plus salmeterol”.

**Q.** What about the “Estimated Treatment Effect, change from baseline in peak FEV1 (tetomilast versus placebo)” value ([1]; Baseline Day 1 predose, Day 1, before Advair Diskus) of the same compound?
**A.** The value was 0.08.

**Q.** And the “Estimated Treatment Effect, change from baseline in trough FEV1 (tetomilast versus placebo)” value ([1]; Baseline Day 1 predose, Day 2, before Advair Diskus)?
**A.** Its value is 0.11.

**Q.** What about the “Estimated Treatment Effect, change from baseline in trough FEV1 (tetomilast versus placebo)” value ([1]; Baseline Day 1 predose, Day 3, before Advair Diskus) of the same compound?
**A.** Its value is 0.07.

**Q.** And the “Estimated Treatment Effect, change from baseline in trough FEV1 (tetomilast versus placebo)” value ([1]; Baseline Day 1 predose, Day 4, before Advair Diskus)?
**A.** The value was 0.12.

**Q.** What about the “Estimated Treatment Effect, change from baseline in trough FEV1 (tetomilast versus placebo)” value ([1]; Baseline Day 1 predose, Day 5, before Advair Diskus) of the same compound?
**A.** Its value is 0.13.

**Q.** And the “Estimated Treatment Effect, change from baseline in trough FEV1 (tetomilast versus placebo)” value ([1]; Baseline Day 1 predose, Day 6, before Advair Diskus)?
**A.** The value was 0.11.

**Q.** And the “Estimated Treatment Effect, change from baseline in peak FEV1 (tetomilast versus placebo)” value [1, 4]?
**A.** The value was 0.23.

**Q.** What about the “Estimated Treatment Effect, change from baseline in trough FEV1 (tetomilast versus placebo)” value [1, 4] of the same compound?
**A.** The value was 0.13.

**Q.** And the “Estimated Treatment Effect, change from baseline in peak FEV1 (tetomilast versus placebo)” value [1, 5]?
**A.** Its value is 0.21.

**Q.** What about the “Estimated Treatment Effect, change from baseline in trough FEV1 (tetomilast versus placebo)” value [1, 5] of the same compound?
**A.** Its value is 0.16.

**Q.** And the “Estimated Treatment Effect, change from baseline in peak FEV1 (tetomilast versus placebo)” value [1, 6]?
**A.** Its value is 0.30.

**Q.** What about the “Estimated Treatment Effect, change from baseline in trough FEV1 (tetomilast versus placebo)” value [1, 6] of the same compound?
**A.** Its value is 0.18.

**Q.** What about the “Estimated Treatment Effect, change from baseline in peak FEV1 (tetomilast versus placebo)” value [1, 7] of the same compound?
**A.** The value was 0.28.

**Q.** What about the “Estimated Treatment Effect, change from baseline in trough FEV1 (tetomilast versus placebo)” value [1, 7] of the same compound?
**A.** Its value is 0.21.

**Q.** What about the “Estimated Treatment Effect, change from baseline in peak FEV1 (tetomilast versus placebo)” value [1, 8] of the same compound?
**A.** Its value is 0.21.

**Q.** What about the “Estimated Treatment Effect, change from baseline in trough FEV1 (tetomilast versus placebo)” value [1, 8] of the same compound?
**A.** Its value is 0.15.

**Q.** And the “Estimated Treatment Effect, change from baseline in trough FEV1 (tetomilast versus placebo)” value ([1]; Baseline Day 7 predose, Day 14, both with Advair Diskus 250/50 BID)?
**A.** Its value is 0.02.

**Q.** And the “Estimated Treatment Effect, change from baseline in trough FEV1 (tetomilast versus placebo)” value ([1]; Baseline Day 7 predose, Day 21, both with Advair Diskus 250/50 BID)?
**A.** The value was 0.05.

**Q.** What about the “Estimated Treatment Effect, change from baseline in trough FEV1 (tetomilast versus placebo)” value ([1]; Baseline Day 7 predose, Day 28, both with Advair Diskus 250/50 BID) of the same compound?
**A.** Its value is 0.06.

**Q.** And the “Estimated Treatment Effect, change from baseline in trough FEV1 (tetomilast versus placebo)” value ([1]; Baseline Day 7 predose, Day 35, both with Advair Diskus 250/50 BID)?
**A.** The value was 0.02.

**Q.** What about the “Estimated Treatment Effect in Baseline Mean trough FEV1, Day 7 predose (tetomilast versus placebo)” value ([1]; Day 7 predose, before Advair Diskus) of the same compound?
**A.** The value was 0.38.

**Q.** And the “Trough FEV1 compared with placebo” value ([1]; day-1 baseline, all time points through day-7 except day-3, and day-14 through day-35 (with Advair Diskus 250/50))?
**A.** The value was “statistically significantly improved”.

**Q.** What about the “peak and average FEV1 improvements compared with placebo” value ([1]; days 7, 21 and 28, approached statistical significance at day 14 and day 35) of the same compound?
**A.** Its value is “statistically significant”.

**Q.** What about the “LPS-induced cytokine production (TNF-α, IL-1β, IL-6)” value [2] of the same compound?
**A.** The value was “dose-related suppression”.

**Q.** What about the “airway resistance and peak expiration flow” value [3] of the same compound?
**A.** The value was “improve”.
